Assay results published in patent publication US9695155B2, “Herbicidal substituted pyrimidinyloxy benzene compounds” (E. I. DU PONT DE NEMOURS AND COMPANY, priority 2013, dated 2017).

How the values were obtained:
barnyardgrass [1] = assay: Test A postemergence; type: in vivo, Echinochloa crus-galli; conditions: 0 to 100 scale where 0 is no effect and 100 is complete control
Outline: (§1)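 Visual injury scored 0–100 (100 = complete control) against untreated controls about 10 days after treatment in a greenhouse. Test chemicals, formulated with surfactant in non-phytotoxic solvent, were sprayed on soil preemergence or on 2-10 cm, one- to two-leaf plants postemergence.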

large (Lg) crabgrass = assay: Test A postemergence; type: in vivo, Digitaria sanguinalis; conditions: 0 to 100 scale where 0 is no effect and 100 is complete control; for Crabgrass, Large plant response rating: 125 g ai/ha
Outline: as §1

giant foxtail [2] = assay: Test A postemergence; type: in vivo, Setaria faberii; conditions: 0 to 100 scale where 0 is no effect and 100 is complete control
Outline: as §1

morningglory [3] = assay: Test A postemergence; type: in vivo, Ipomoea spp.; conditions: 0 to 100 scale where 0 is no effect and 100 is complete control; for Morningglory plant response rating: 125 g ai/ha
Outline: as §1

velvetleaf [4] = assay: Test A postemergence; type: in vivo, Abutilon theophrasti; conditions: 0 to 100 scale where 0 is no effect and 100 is complete control; for Velvetleaf plant response rating: 125 g ai/ha
Outline: as §1

corn = assay: Test A postemergence; type: in vivo, Zea mays; conditions: 0 to 100 scale where 0 is no effect and 100 is complete control
Outline: as §1

Heteranthera limosa = assay: Test B flooded paddy test; type: in vivo; conditions: Flood, 250 g ai/ha, 0 to 100 scale where 0 is no effect and 100 is complete control
Outline: (§2)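 Post-emergence paddy-water application at the 2-leaf stage, with 3 cm flood kept for the whole test. Response was judged visually relative to controls after 13 to 15 greenhouse days, 0 indicating no effect and 100 complete control.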

barnyardgrass [5] = assay: Test B flooded paddy test; type: in vivo, Echinochloa crus-galli; conditions: Flood, 250 g ai/ha, 0 to 100 scale where 0 is no effect and 100 is complete control
Outline: as §2

wheat, winter = assay: Test C preemergence; type: in vivo, Triticum aestivum
Outline: (§3)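 Rated visually on 0–100 (100 = complete control) after 13–15 days under glass. Treatments went onto freshly seeded loam/sand soil or onto emerged plants at the 1- to 4-leaf stage, using a surfactant-containing solvent formulation.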

giant foxtail [6] = assay: Test C preemergence; type: in vivo, Setaria faberii
Outline: as §3

yellow nutsedge = assay: Test C preemergence; type: in vivo, Cyperus esculentus
Outline: as §3

pigweed = assay: Test C preemergence; type: in vivo, Amaranthus retroflexus
Outline: as §3

velvetleaf [7] = assay: Test C preemergence; type: in vivo, Abutilon theophrasti
Outline: as §3

galium = assay: Test C postemergence; type: in vivo, Galium aparine
Outline: as §3

morningglory [8] = assay: Test C postemergence; type: in vivo, Ipomoea coccinea; conditions: for Morningglory plant response rating: 31 g ai/ha
Outline: as §3

chickweed = assay: Test C postemergence; type: in vivo, Stellaria media
Outline: as §3

[9] = postemergence, visual rating, scale 0 to 100 (0 no effect, 100 complete control), 13 to 15 days
[10] = 125 g ai/ha, preemergence, scale 0 (no effect) to 100 (complete control)
[11] = 250 g ai/ha, preemergence, scale 0 (no effect) to 100 (complete control)
[12] = Preemergence, 62 g ai/ha, scale 0 to 100, 0 no effect, 100 complete control
[13] = 31 g ai/ha, postemergence, visual rating, scale 0 to 100 (0 no effect, 100 complete control), 13 to 15 days
[14] = 125 g ai/ha, postemergence, visual rating, scale 0 to 100 (0 no effect, 100 complete control)
[15] = Postemergence, 62 g ai/ha, scale 0 to 100 (0 no effect, 100 complete control), 13 to 15 days

FC(F)c1cccc(Oc2ncc(Cl)cn2)c1-n1cc(Br)cn1 [Compound 194, 2-[2-(4-bromo-1H-pyrazol-1-yl)-3-(difluoromethyl)phenoxy]-5-chloropyrimidine]
pest or weed control at 125 g/ha (barnyardgrass [1]; Echinochloa crus-galli, post-emergence, 240 h, 125 g ai/ha, read-out: Barnyardgrass plant response rating): 80% | pest or weed control at 500 g/ha (barnyardgrass [1]; Echinochloa crus-galli, post-emergence, 240 h, 500 g ai/ha, read-out: Plant response rating, Barnyardgrass): 90% | Crabgrass, Large plant response rating (large (Lg) crabgrass): 90 | pest or weed control at 500 g/ha (large (Lg) crabgrass; Digitaria sanguinalis, post-emergence, 240 h, 500 g ai/ha, read-out: Plant response rating, Crabgrass, Large): 100% | pest or weed control at 125 g/ha (giant foxtail [2]; Setaria faberi, post-emergence, 240 h, 125 g ai/ha, read-out: Foxtail, Giant plant response rating): 90% | pest or weed control at 500 g/ha (giant foxtail [2]; Setaria faberi, post-emergence, 240 h, 500 g ai/ha, read-out: Plant response rating, Foxtail, Giant): 100% | Morningglory plant response rating (morningglory [3]): 90 | pest or weed control at 500 g/ha (morningglory [3]; Ipomoea, post-emergence, 240 h, 500 g ai/ha, read-out: Plant response rating, Morningglory): 100% | Velvetleaf plant response rating (velvetleaf [4]): 100 | pest or weed control at 500 g/ha (velvetleaf [4]; Abutilon theophrasti, post-emergence, 240 h, 500 g ai/ha, read-out: Plant response rating, Velvetleaf): 100% | plant injury at 125 g/ha (corn; Zea mays, post-emergence, 240 h, 125 g ai/ha, read-out: Corn plant response rating): 30% | Corn plant response rating (crop injury, 0 = no effect, 100 = complete kill) at 500 g/ha (corn; Zea mays, post-emergence, 240 h, 500 g ai/ha): 60% | pest or weed control at 250 g/ha (Heteranthera limosa; Heteranthera limosa, read-out: Plant response rating, Ducksalad): 98% | pest or weed control at 250 g/ha (barnyardgrass [5]; Echinochloa crus-galli, read-out: Plant response rating, Barnyardgrass): 0% | plant injury at 125 g/ha (wheat, winter; Triticum aestivum, pre-emergence, 125 g ai/ha, preemergence, scale 0 (no effect) to 100 (complete control), read-out: Wheat plant response rating): 0% | plant injury at 250 g/ha (wheat, winter; Triticum aestivum, pre-emergence, 250 g ai/ha, preemergence, scale 0 (no effect) to 100 (complete control), read-out: Wheat plant response rating): 35% | plant injury at 62 g/ha (wheat, winter; Triticum aestivum, pre-emergence, Preemergence, 62 g ai/ha, scale 0 to 100, 0 no effect, 100 complete control, read-out: Plant response rating, Wheat): 0% | pest or weed control at 125 g/ha (giant foxtail [6]; Setaria faberi, pre-emergence, 125 g ai/ha, preemergence, scale 0 (no effect) to 100 (complete control), read-out: Foxtail, Giant plant response rating): 100% | pest or weed control at 250 g/ha (giant foxtail [6]; Setaria faberi, pre-emergence, 250 g ai/ha, preemergence, scale 0 (no effect) to 100 (complete control), read-out: Foxtail, Giant plant response rating): 100% | pest or weed control at 62 g/ha (giant foxtail [6]; Setaria faberi, pre-emergence, Preemergence, 62 g ai/ha, scale 0 to 100, 0 no effect, 100 complete control, read-out: Plant response rating, Foxtail, Giant): 90% | pest or weed control at 125 g/ha (yellow nutsedge; Cyperus, pre-emergence, 125 g ai/ha, preemergence, scale 0 (no effect) to 100 (complete control), read-out: Nutsedge, Yellow plant response rating): 0% | pest or weed control at 250 g/ha (yellow nutsedge; Cyperus, pre-emergence, 250 g ai/ha, preemergence, scale 0 (no effect) to 100 (complete control), read-out: Nutsedge, Yellow plant response rating): 25% | pest or weed control at 62 g/ha (yellow nutsedge; Cyperus, pre-emergence, Preemergence, 62 g ai/ha, scale 0 to 100, 0 no effect, 100 complete control, read-out: Plant response rating, Nutsedge, Yellow): 0% | pest or weed control at 125 g/ha (pigweed; Amaranthus retroflexus, pre-emergence, 125 g ai/ha, preemergence, scale 0 (no effect) to 100 (complete control), read-out: Pigweed plant response rating): 100% | pest or weed control at 250 g/ha (pigweed; Amaranthus retroflexus, pre-emergence, 250 g ai/ha, preemergence, scale 0 (no effect) to 100 (complete control), read-out: Pigweed plant response rating): 100% | pest or weed control at 62 g/ha (pigweed; Amaranthus retroflexus, pre-emergence, Preemergence, 62 g ai/ha, scale 0 to 100, 0 no effect, 100 complete control, read-out: Plant response rating, Pigweed): 100% | pest or weed control at 125 g/ha (velvetleaf [7]; Abutilon theophrasti, pre-emergence, 125 g ai/ha, preemergence, scale 0 (no effect) to 100 (complete control), read-out: Velvetleaf plant response rating): 100% | pest or weed control at 250 g/ha (velvetleaf [7]; Abutilon theophrasti, pre-emergence, 250 g ai/ha, preemergence, scale 0 (no effect) to 100 (complete control), read-out: Velvetleaf plant response rating): 100% | pest or weed control at 62 g/ha (velvetleaf [7]; Abutilon theophrasti, pre-emergence, Preemergence, 62 g ai/ha, scale 0 to 100, 0 no effect, 100 complete control, read-out: Plant response rating, Velvetleaf): 75% | pest or weed control at 31 g/ha (galium; Galium, post-emergence, 31 g ai/ha, postemergence, visual rating, scale 0 to 100 (0 no effect, 100 complete control), 13 to 15 days, read-out: Galium plant response rating): 60% | pest or weed control at 125 g/ha (galium; Galium, post-emergence, 125 g ai/ha, postemergence, visual rating, scale 0 to 100 (0 no effect, 100 complete control), read-out: Plant response rating, Galium): 85% | pest or weed control at 250 g/ha (galium; Galium, post-emergence, 250 g ai/ha, postemergence, read-out: Plant response rating (0 to 100), Galium): 90% | pest or weed control at 62 g/ha (galium; Galium, post-emergence, Postemergence, 62 g ai/ha, scale 0 to 100 (0 no effect, 100 complete control), 13 to 15 days, read-out: Plant response rating, Galium): 65% | Morningglory plant response rating (morningglory [8]; [9]): 50 | pest or weed control at 125 g/ha (morningglory [8]; Ipomoea, post-emergence, 125 g ai/ha, postemergence, visual rating, scale 0 to 100 (0 no effect, 100 complete control), read-out: Plant response rating, Morningglory): 80% | pest or weed control at 250 g/ha (morningglory [8]; Ipomoea, post-emergence, 250 g ai/ha, postemergence, read-out: Plant response rating (0 to 100), Morningglory): 95% | pest or weed control at 62 g/ha (morningglory [8]; Ipomoea, post-emergence, Postemergence, 62 g ai/ha, scale 0 to 100 (0 no effect, 100 complete control), 13 to 15 days, read-out: Plant response rating, Morningglory): 80% | pest or weed control at 31 g/ha (chickweed; Stellaria media, post-emergence, 31 g ai/ha, postemergence, visual rating, scale 0 to 100 (0 no effect, 100 complete control), 13 to 15 days, read-out: Chickweed plant response rating): 50% | pest or weed control at 125 g/ha (chickweed; Stellaria media, post-emergence, 125 g ai/ha, postemergence, visual rating, scale 0 to 100 (0 no effect, 100 complete control), read-out: Plant response rating, Chickweed): 70% | pest or weed control at 250 g/ha (chickweed; Stellaria media, post-emergence, 250 g ai/ha, postemergence, read-out: Plant response rating (0 to 100), Chickweed): 85% | pest or weed control at 62 g/ha (chickweed; Stellaria media, post-emergence, Postemergence, 62 g ai/ha, scale 0 to 100 (0 no effect, 100 complete control), 13 to 15 days, read-out: Plant response rating, Chickweed): 70%

N#Cc1cccc(Oc2ncc(Cl)cn2)c1-n1cc(I)cn1 [Compound 204]
Barnyardgrass plant response rating (barnyardgrass [1]; 125 g ai/ha): 80 | Plant response rating, Barnyardgrass (barnyardgrass [1]; 500 g ai/ha): 90 | Crabgrass, Large plant response rating (large (Lg) crabgrass): 90 | Plant response rating, Crabgrass, Large (large (Lg) crabgrass; 500 g ai/ha): 100 | Foxtail, Giant plant response rating (giant foxtail [2]; 125 g ai/ha): 80 | Plant response rating, Foxtail, Giant (giant foxtail [2]; 500 g ai/ha): 100 | Morningglory plant response rating (morningglory [3]): 80 | Plant response rating, Morningglory (morningglory [3]; 500 g ai/ha): 100 | Velvetleaf plant response rating (velvetleaf [4]): 100 | Plant response rating, Velvetleaf (velvetleaf [4]; 500 g ai/ha): 100 | Corn plant response rating (corn; 125 g ai/ha): 50 | Plant response rating, Corn (corn; 500 g ai/ha): 60 | Plant response rating, Ducksalad (Heteranthera limosa): 70 | Plant response rating, Barnyardgrass (barnyardgrass [5]): 20 | Wheat plant response rating (wheat, winter; [10]): 30 | Wheat plant response rating (wheat, winter; [11]): 60 | Plant response rating, Wheat (wheat, winter; [12]): 5 | Foxtail, Giant plant response rating (giant foxtail [6]; [10]): 100 | Foxtail, Giant plant response rating (giant foxtail [6]; [11]): 100 | Plant response rating, Foxtail, Giant (giant foxtail [6]; [12]): 98 | Nutsedge, Yellow plant response rating (yellow nutsedge; [10]): 60 | Nutsedge, Yellow plant response rating (yellow nutsedge; [11]): 60 | Plant response rating, Nutsedge, Yellow (yellow nutsedge; [12]): 0 | Pigweed plant response rating (pigweed; [10]): 98 | Pigweed plant response rating (pigweed; [11]): 98 | Plant response rating, Pigweed (pigweed; [12]): 100 | Velvetleaf plant response rating (velvetleaf [7]; [10]): 98 | Velvetleaf plant response rating (velvetleaf [7]; [11]): 98 | Plant response rating, Velvetleaf (velvetleaf [7]; [12]): 85 | Galium plant response rating (galium; [13]): 70 | Plant response rating, Galium (galium; [14]): 75 | Plant response rating (0 to 100), Galium (galium; 250 g ai/ha, postemergence): 100 | Plant response rating, Galium (galium; [15]): 75 | Morningglory plant response rating (morningglory [8]; [9]): 60 | Plant response rating, Morningglory (morningglory [8]; [14]): 98 | Plant response rating (0 to 100), Morningglory (morningglory [8]; 250 g ai/ha, postemergence): 95 | Plant response rating, Morningglory (morningglory [8]; [15]): 65 | Chickweed plant response rating (chickweed; [13]): 75 | Plant response rating, Chickweed (chickweed; [14]): 98 | Plant response rating (0 to 100), Chickweed (chickweed; 250 g ai/ha, postemergence): 100 | Plant response rating, Chickweed (chickweed; [15]): 95
